Laboratory results as given in EP0028083A1, “Derivatives of clavulanic acid, a process for their preparation and pharmaceutical compositions containing them” (BEECHAM GROUP PLC, priority 1979, dated 1981).
In brackets after ≈: the same amount, converted by molar mass.

How the values were obtained:
Type in all cases: cell-based
K. aerogenes E70 = assay: MIC by standard microtitre technique, amoxycillin with and without compound
S. aureus Russell = assay: as above
E. coli JT39 [1] = assay: as above
Kleb. aerogenes E70 = assay: MIC by standard microtitre technique, ampicillin with and without inhibitor; conditions: dilution in trytone soy broth
Procedure: (§1) By a standard microtitre technique the MIC values for ampicillin alone, ampicillin and 9-(4-benzyl piperazinyldeoxyclavulanic acid and 9-(4-benzyl)piperazin -1-yldeoxyclavulanic acid alone were determined.

Staph. aureus Russell = assay: as above; conditions: dilution in trytone soy broth
Procedure: as §1

E. coli JT39 [2] = assay: as above; conditions: dilution in trytone soy broth
Procedure: as §1

[3] = Amoxycillin + compound, concentration of inhibitor 1.0 µg/ml
[4] = Amoxycillin + compound, concentration of inhibitor 5.0 µg/ml
[5] = Ampicillin + inhibitor at 1µg/ml
[6] = Ampicillin + inhibitor at 5µg/ml

Compound | MIC (K. aerogenes E70; [3]) | MIC (K. aerogenes E70; [4]) | MIC (S. aureus Russell; [3]) | MIC (S. aureus Russell; [4]) | MIC (E. coli JT39 [1]; [3]) | MIC (E. coli JT39 [1]; [4]) | also measured
CCOC(=O)N1CCN(C/C=C2\O[C@@H]3CC(=O)N3[C@H]2C(=O)O)CC1 [Example 4, 9-(4-Ethoxycarbonylpiperazin-1-yl)deoxyclavulanic acid] | 6.2 µg/mL | 1.5 µg/mL | 1.25 µg/mL | 0.3 µg/mL | 31.2 µg/mL | 4.0 µg/mL | –
CC1CN(C/C=C2\O[C@@H]3CC(=O)N3[C@H]2C(=O)O)CC(C)O1 (stereo partly shown) [Example 13, 9-(2,6-DimethyLmorpholino)deoxyclavulanic acid] | 6.2 µg/mL | 1.5 µg/mL | 1.25 µg/mL | 0.3 µg/mL | 31.2 µg/mL | 4.0 µg/mL | –
O=C(O)[C@H]1/C(=C/CN2CCN(Cc3ccccc3)CC2)O[C@@H]2CC(=O)N21 [Example 2, 9-(4-Benzylpiperazin-1-yl)deoxyclavulanic acid] | – | – | – | – | – | – | MIC (Kleb. aerogenes E70; [5]): 25 µg/mL; MIC (Kleb. aerogenes E70; [6]): 3.1 µg/mL; MIC (Kleb. aerogenes E70; Inhibitor alone): 500 µg/mL (≈ 1400 µM); MIC (Staph. aureus Russell; [5]): 0.3 µg/mL; MIC (Staph. aureus Russell; [6]): <0.01 µg/mL; MIC (Staph. aureus Russell; Inhibitor alone): 16 µg/mL (≈ 44.8 µM); MIC (E. coli JT39 [2]; [5]): 62 µg/mL; MIC (E. coli JT39 [2]; [6]): 16 µg/mL; MIC (E. coli JT39 [2]; Inhibitor alone): >500 µg/mL
CC1(C)S[C@@H]2[C@H](NC(=O)[C@H](N)c3ccccc3)C(=O)N2[C@H]1C(=O)O [Ampicillin, ampicillin, reference compound] | – | – | – | – | – | – | MIC (Kleb. aerogenes E70; Ampicillin alone): 1000 µg/mL (≈ 2860 µM); MIC (Staph. aureus Russell; Ampicillin alone): 1000 µg/mL (≈ 2860 µM); MIC (E. coli JT39 [2]; Ampicillin alone): >2000 µg/mL
O=C(O)[C@H]1/C(=C/CN2CCN(c3ccccc3)CC2)O[C@@H]2CC(=O)N21 [Example 15, 9-(4-Phenylpiperazin-l-yl)deoxyclavulanic acid] | 12.5 µg/mL | 6.2 µg/mL | 0.16 µg/mL | – | 31.2 µg/mL | 4.0 µg/mL | –
CC1(C)S[C@@H]2[C@H](NC(=O)[C@H](N)c3ccc(O)cc3)C(=O)N2[C@H]1C(=O)O [Amoxycillin, reference compound] | – | – | – | – | – | – | MIC (K. aerogenes E70; Amoxycillin alone): 500 µg/mL (≈ 1370 µM); MIC (S. aureus Russell; Amoxycillin alone): 500 µg/mL (≈ 1370 µM); MIC (E. coli JT39 [1]; Amoxycillin alone): 500 µg/mL (≈ 1370 µM)
O=C(OCc1ccc([N+](=O)[O-])cc1)[C@H]1/C(=C/CN2CCSCC2)O[C@@H]2CC(=O)N21 [Example 8, p-Nitrobenzyl 9-(thiomorpholino)deoxyclavulanate] | 3.1 µg/mL | 1.6 µg/mL | 0.62 µg/mL | – | 8.0 µg/mL | 2.0 µg/mL | –
O=C(O)[C@H]1/C(=C/CN2CCOCC2)O[C@@H]2CC(=O)N21 [Example 11, 9-(Morpholino)deoxyclavulanic acid] | 3.1 µg/mL | 1.5 µg/mL | 0.6 µg/mL | 0.15 µg/mL | 16.0 µg/mL | 4.0 µg/mL | –
